Measured values reported in patent publication US20230390277A1, “METHODS TO SENSITIZE TUMORS TO TREATMENT BY IMMUNOTHERAPY” (Ohio State Innovation Foundation, priority 2020, published 2023).
Residues, ends and D or L forms follow the SMILES beside them. *: point of attachment. Cbz = O=C(OCc1ccccc1)*

What was measured:
MP2 pODD flank tumors = test: in vivo bioluminescent imaging, heterotopic MP2 pODD flank tumors; design: species or system mouse
Description: In vivo bioluminescent imaging. […] For heterotopic flank tumor experiments, 1×10^6 HeLa pODD or 5×10^6 MP2 cells were injected subcutaneously (s.c.) into the flanks of 6-wk-old female (HeLa pODD) or male (N1P2 pODD or MP2 CMV) immunocompromised athymic nu/nu mice. Replicate experiments with groups of 4-6 mice were used for statistical reproducibility. Caliper measurements of opposing diameters were used to calculate the tumor volumes using the modified ellipsoidal formula: tumor volume=(length×width^2)[23]. Upon reaching 100 mm^3, the animals were given 100 mg/kg D-luciferin intraperitoneally and bioluminescence images were captured using IVIS In Vivo Imaging System Lumina II (Perkin Elmer Inc). […] Bioluminescent data were analyzed using living Image software (Perkin Elmer Inc) and calculated as photon flux/sec. Obtained individual photon flux peak values were then normalized to baseline for each mouse and averaged per group. Gas inhalation experiments were performed by switching medical air and carbogen gas sources for the IVIS anesthesia vaporizer. Initial baselines were established in medical air under anesthesia, then the mice were subjected to 30 minutes of either medical air or carbogen rebreathing in an air-tight chamber while awake. After 30 minutes, photon flux was established in respective gas sources as a carrier for isoflurane anesthesia.

CMT167 flank lung tumors = CMT167 flank lung tumors in C57Bl6 mice, sensitization to anti PD-1; format: in vivo, mouse
Description: C57B16 mice bearing CMT167 flank lung tumors were treated as indicated on days 10 and 13 and relative volume followed.
There are reports in the literature indicating ways that hypoxia affects immune functions of lymphocytes, MDSCs and T regulatory cells infiltrating in the tumor.

PDE10A = biological target: T1, PDE10A (Homo sapiens, UniProt Q9Y233); test: PDE10A purified enzyme activity assay (BPS Bioscience); format: biochemical; conditions: for PDE inhibition IC25: dose response analysis
T1 construct: purchased BPS Bioscience
T1 sequence (Q9Y233 whole entry): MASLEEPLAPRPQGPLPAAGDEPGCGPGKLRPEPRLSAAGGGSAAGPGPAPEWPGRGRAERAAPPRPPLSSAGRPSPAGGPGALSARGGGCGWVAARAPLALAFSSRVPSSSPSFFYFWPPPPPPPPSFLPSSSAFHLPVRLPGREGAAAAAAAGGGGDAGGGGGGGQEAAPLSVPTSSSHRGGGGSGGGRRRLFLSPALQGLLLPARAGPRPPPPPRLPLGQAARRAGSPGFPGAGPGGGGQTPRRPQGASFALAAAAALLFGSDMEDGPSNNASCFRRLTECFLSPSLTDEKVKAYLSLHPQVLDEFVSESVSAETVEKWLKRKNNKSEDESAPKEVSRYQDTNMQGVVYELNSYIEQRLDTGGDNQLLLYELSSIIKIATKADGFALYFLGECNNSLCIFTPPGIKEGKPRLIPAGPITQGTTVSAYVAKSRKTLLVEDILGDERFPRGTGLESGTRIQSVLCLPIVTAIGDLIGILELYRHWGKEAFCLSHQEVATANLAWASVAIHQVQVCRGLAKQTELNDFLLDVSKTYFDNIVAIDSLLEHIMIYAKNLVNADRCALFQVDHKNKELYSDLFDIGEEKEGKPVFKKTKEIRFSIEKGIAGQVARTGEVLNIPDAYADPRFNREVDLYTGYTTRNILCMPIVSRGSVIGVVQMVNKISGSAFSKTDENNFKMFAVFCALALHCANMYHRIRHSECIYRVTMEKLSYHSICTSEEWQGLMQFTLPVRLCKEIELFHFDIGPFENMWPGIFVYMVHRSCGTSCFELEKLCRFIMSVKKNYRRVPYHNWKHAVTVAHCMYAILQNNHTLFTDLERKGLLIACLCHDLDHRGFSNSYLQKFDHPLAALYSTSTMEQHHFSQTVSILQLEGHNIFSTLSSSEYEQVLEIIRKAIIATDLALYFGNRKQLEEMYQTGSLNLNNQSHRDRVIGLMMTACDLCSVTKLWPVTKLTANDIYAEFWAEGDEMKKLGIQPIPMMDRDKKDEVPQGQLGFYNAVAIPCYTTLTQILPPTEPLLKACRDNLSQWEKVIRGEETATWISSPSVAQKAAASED
Source text: We therefore defined the structure activity relationship (SAR) of PPV relative to two assays: inhibition of cellular OCR by Seahorse XE assay, and inhibition of PDE10A by purified enzyme activity (PDE10A activity assay, BPS Bioscience). […] Because the top portion of PPV was a planar structure like that of rotenone, we decided to focus our attention on the lower portion of the molecule.

LLC tumor = test: Lewis Lung Carcinoma (LLC) PD-1 blockade resistant tumor model; format: in vivo, mouse
Description: LLC tumor bearing mice were treated as indicated on days 5, 8 and relative growth followed. P=NS for PD-1 vs PPV->PD1, 0.04 for PD-i vs SMV32->PD-1.
Finally, as a rigorous test of anti-hypoxia agents as immuno-sensitizers of model tumors grown in mice, we next tested the PD-1 blockade resistant tumor model Lewis Lung Carcinoma (LLC). These tumors have been reported to be refractory to even full dose (200 ug/mouse) PD-1 blocking antibody.

cells = test: in vitro washout experiments; format: cell-based; conditions: initial studies
murine tumors = test: murine tumor hypoxia and radiation response; conditions: mouse, in vivo
[1] = test system: orthotopic MP2 pODD tumors; test: in vivo bioluminescent imaging, orthotopic MP2 pODD tumors; design: species or system mouse; conditions: 2 mg/kg, tail vein
Description: Orthotopic Panreatic Xenografts. MP2 PD AC cells (1×10^6) or the indicated derivates were implanted in immune-deficient athymic nu/nu mice following fACLIC approved protocols. Briefly, an incision was placed in the right flank of anesthetized animals the spleen and pancreas liberated. Cells were mixed 1:1 with Matfigel and implanted in the tail of the pancreas in 10 μl. Incision was sutured in 2 layers, animals given long lasting analgesics, and allowed to recover from anesthesia. Mice were returned to housing for post-op care and monitored daily for 4 days. Animals were checked weekly after that by palpation to determine tumor growth.
In vivo bioluminescent imaging. All animal experiments were performed according to protocols approved by the OSU institutional IAGLIC review (protocol #201200000124-R2), with daily veterinarian observation. For heterotopic flank tumor experiments, 1×10^6 HeLa pODD or 5×10^6 MP2 cells were injected subcutaneously (s.c.) into the flanks of 6-wk-old female (HeLa pODD) or male (N1P2 pODD or MP2 CMV) immunocompromised athymic nu/nu mice. […] Mice were anesthetized with 1.5% isoflurane and bioluminescence was measured every two minutes for the period of 25 minutes to identify peak response of each mouse to D-luciferin. Bioluminescent data were analyzed using living Image software (Perkin Elmer Inc) and calculated as photon flux/sec. […]

ETC complex 1 (C1) = ETC complex 1 (C1) (Homo sapiens, UniProt O75251+O75306+P03886); test: inhibition of cellular OCR by Seahorse XE assay; format: cell-based; conditions: for C1 inhibitor selectivity: vs PDE10A
Chain of ETC complex 1 (C1) (O75251 39-213): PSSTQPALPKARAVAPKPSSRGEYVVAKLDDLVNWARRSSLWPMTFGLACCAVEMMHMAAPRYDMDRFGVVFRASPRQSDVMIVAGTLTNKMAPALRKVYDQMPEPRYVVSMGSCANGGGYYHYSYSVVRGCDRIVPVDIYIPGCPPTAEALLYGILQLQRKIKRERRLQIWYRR
Chain of ETC complex 1 (C1) (O75306 34-463): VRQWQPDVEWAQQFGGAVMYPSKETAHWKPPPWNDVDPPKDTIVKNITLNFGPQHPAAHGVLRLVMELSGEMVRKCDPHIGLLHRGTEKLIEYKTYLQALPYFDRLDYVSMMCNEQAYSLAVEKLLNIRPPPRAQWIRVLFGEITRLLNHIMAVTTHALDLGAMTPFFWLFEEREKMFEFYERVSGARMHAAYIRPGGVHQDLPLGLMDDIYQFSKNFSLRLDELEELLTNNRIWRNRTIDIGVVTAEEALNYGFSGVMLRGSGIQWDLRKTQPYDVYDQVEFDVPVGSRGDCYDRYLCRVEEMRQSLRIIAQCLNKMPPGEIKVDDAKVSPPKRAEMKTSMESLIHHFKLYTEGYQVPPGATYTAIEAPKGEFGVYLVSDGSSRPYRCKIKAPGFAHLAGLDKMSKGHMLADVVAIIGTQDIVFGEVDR
Chain of ETC complex 1 (C1) (P03886 whole entry): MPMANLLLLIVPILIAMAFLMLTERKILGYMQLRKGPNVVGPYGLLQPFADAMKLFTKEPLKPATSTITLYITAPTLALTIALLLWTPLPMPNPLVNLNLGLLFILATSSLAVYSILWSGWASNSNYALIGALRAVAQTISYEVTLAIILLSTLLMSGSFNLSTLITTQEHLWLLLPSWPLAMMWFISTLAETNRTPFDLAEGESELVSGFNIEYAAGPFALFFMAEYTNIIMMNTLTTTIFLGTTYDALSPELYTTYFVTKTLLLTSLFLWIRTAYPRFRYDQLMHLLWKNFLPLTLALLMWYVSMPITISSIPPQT
Source text: PPVs PDE and mitochondrial activities are chemically separable. Papaverine has been traditionally thought to be effective as a vasodilator for the treatment of conditions including erectile dysfunction because it can inhibit PDE10A (like PDE 5 inhibitors sildenafil and tadalafil). However, PDE inhibition is not responsible for OCR effects in vitro, so we postulated that there are two activities in PPV, one inhibiting ETC complex 1 (C1) and one inhibiting PDE10A that may reside in different parts of the molecule. We therefore defined the structure activity relationship (SAR) of PPV relative to two assays: inhibition of cellular OCR by Seahorse XE assay, and inhibition of PDE10A by purified enzyme activity (PDE10A activity assay, BPS Bioscience). Because PPV can compete with rotenone at complex 1 (23), we reasoned that they may be binding the same site and therefore the structures would be similar relative to their target. Because the top portion of PPV was a planar structure like that of rotenone, we decided to focus our attention on the lower portion of the molecule.

MC38 colorectal tumor = test: MC38 colorectal tumors in C57Bl6 mice, sensitization to anti PD-1; format: in vivo, mouse
Description: MC38 tumors grown in C57B16 mice were treated as indicated with irrelevant antibody, anti PD-1, or anti PD-1 after PPV or SMV32 n=5-7, P=<0.05* for PPV and <0.01** for SMV32.
Papaverine and SMV32 enhance PD-1 checkpoint blockade immunotherapy for cancer treatment. Because of the literature describing the immunomodulatory effects of hypoxia^(24-27), we hypothesized that reducing hypoxia may also enhance tumor lymphocyte infiltration and function and improve immune-mediated tumor cell killing. As those of skill in the art recognize, there is a large body of literature and research on increase the supply side of the hypoxia equation, but it has been heretofore an unexpected approach to decrease the tri demand side of the hypoxia equation. We tested tumors grown from the relatively immune-sensitive syngeneic MC38 colorectal tumor line in immuno-competent C5713116 mice. […] In a second cohort, we implanted 1×10^6 cells/mouse and after 5 days, when tumors were 50-100 mm^3, they were randomized into four groups. Therapy was started with either control rat IgG antibody, or a suboptimal dose of anti PD-1(CD279) blocking monoclonal antibody (BioXCell, clone 29F.1A12, 100 μg ip every 3 days).

[2] = test system: CD8 T cells in MC38 tumors; test: multispectral immunophenotyping of tumor infiltrating lymphocytes in MC38 tumors; format: in vivo, mouse; conditions: 2 mg/kg IV days 8, 10, 13; tumors harvested day 15
Description: Panel A Tumor infiltrating immune cells isolated from Day 15 MC38 tumors (n=4/g) were stained for lineage (CD45, CD3, CD8, […], and CD11b) and T cell exhaustion (PD1, Tim3, Slamf6, TOX, Tcf1, CD44, CD62L, CTLA4, Lag-3, Klrg1, T-bet, and Ki-67) (93-96). Cells were analyzed by Cytek Aurora multi-spectral FACS, and Umap generated based on concatenated file from each 4 FSC files without variation in cell number. Limp figure was generated by OMIQ with CD8 T cells (CD45+, CD3+, CD8+, CD11b−, CD4−). CD8 population was divided into 15 clusters based on T cell markers. Expression signatures marked (ovals) show progenitor exhausted T cells and terminally exhausted T cells. Panel B Statistical significance of clusters between control and SMV32 treated group were assessed by edgeR and SAM (n=4 mice per group).
In order to determine a mechanism by which reduction in hypoxia enhances immune function in the solid tumor, we undertook an investigation with multi spectral immunophenotyping. This technology uses 36 different markers simultaneously to characterize immune cell infiltrate in tumors. We performed this analysis on heterotopic NIC38 murine colorectal carcinoma tumors grown in immune-competent C57BI6 mouse strain. A cohort of tumor bearing mice were randomized to be treated with either IV delivery of vehicle control, or either PPV or SMV32. […]

[3] = test system: pODD-Luc reporter in MP2 pODD cells; test: in vitro luciferase assay, MP2 pODD cells; format: cell-based, human; conditions: one hour of 10 μM
Description: PCR-amplified cassette was then digested with Asci and Pmel restriction enzymes and ligated into pLenti-C-Myc-DDK-IRES-Puro. Correct orientation and sequence was confirmed by Sanger DNA sequencing. HeLa pODD and MIP2 pODD transfectants were selected with 2 μg/ml Puromycin for two weeks. Stable MP2 CMV Cells were generated by lentiviral transduction of MP2 cells with pLenti-CMV-Puro-Luc lentiviral vector (Addgene#17477) with 2 Puromycin selection for two weeks. Cells were grown in Dulbecco's Modified Eagle's Medium (DMEM) containing 25 mM D-glucose, 4 mM glutamine and 44 mM sodium bicarbonate in 5% CO2, if not stated otherwise. The cells were exposed to hypoxia (1% O2) in H35 Hypoxic Workstation (Hypoxygen) with 5% CO2 at 37° C. In some experiments, we used a hypoxia mimetic dimethyloxalyglycine (DMOG) as described. Cell counts and cellular proliferation were established using hemocytometer to determine the cell number and trypan blue exclusion assay to establish the fraction of viable/dead cells. All human cell lines have been authenticated using STR profiling within the past 3 years. All experiments were performed with mycoplasma-free cells.
In vitro luciferase Assay. Proteins were extracted using Luciferase Assay Lysis Buffer (125 mM Tris-HCl, pH 7.5, 11.0 mM DTT, 10 mM EGTA, 50% Glycerol, 5% Triton X-100) and 200 μl/sample were transferred to 96-well plate and D-luciferin was added to the final concentration of 150 μg/ml immediately before the assay. Bioluminescence was measured on a Synergy H1 Hybrid Plate Reader (Biotek) after a 10-minute incubation period (10 slsample, Gain=150) in triplicates.

CC(C)C[C@H](NC(=O)[C@H](Cc1ccccc1)NC(=O)c1cnccn1)B(O)O [bortezomib]
photon flux (MP2 pODD flank tumors; 1 mg/kg intraperitoneally, 2 hours post injection): significant increase of photon flux

COc1cc2ccnc(Cc3cccc4ccccc34)c2cc1OC [SMV32]
tumor growth delay (CMT167 flank lung tumors; given 16 hours prior to sub-optimal anti-PD-1, days 10 and 13): significant tumor growth delay
comparison with PPV for sensitizing tumors to PD-1 blockade (CMT167 flank lung tumors; same dose as PPV): superior to PPV
PDE inhibition IC25 (PDE10A): 13.4 µM
comparison with PPV for sensitizing tumors to PD-1 blockade (LLC tumor; resistant LLC tumors): superior to PPV
therapeutic effect, compound first and PD-1 antibody second (LLC tumor; treated on days 5, 8): significant growth inhibition
washout from cells (cells): does not wash out of cells
radiation response (murine tumors): increase radiation response of murine tumors
tumor hypoxia (murine tumors): reduce tumor hypoxia
photon flux compared to PPV treated mice [1]: trended to longer duration of action and lower luciferase activity at 6 hours
mitochondrial activity (ETC complex 1 (C1)): retain mitochondrial activity
C1 inhibitor selectivity (ETC complex 1 (C1)): relatively pure
effect on PD-1 blockade (MC38 colorectal tumor; 2 mg/kg iv 16 hours prior to suboptimal anti PD-1 (100 μg ip every 3 days)): enhance the effectiveness of suboptimal PD-1 blockade
tumor growth, compound alone (MC38 colorectal tumor; repeated dosing, no antibody): no effect on tumor growth
exhausted CD8 T cell populations [2]: shift from terminal (known to be non-functional) to progenitor cells

CC(C)C[C@@H](C=O)NC(=O)[C@H](CC(C)C)NC(=O)[C@H](CC(C)C)NC(=O)OCc1ccccc1 [MG132] (Cbz-Leu-Leu-Leu-aldehyde)
increase in pODD-Luc activity compared to 24 h hypoxia [3]: 70 fold
induction of pODD-Luc activity compared to normoxia [3]: 377 fold

COc1cc2ccnc(Cc3cc(C)cc(C)c3)c2cc1OC [SMV23]
PDE inhibition IC25 (PDE10A): 0.5 µM
PDE10A inhibitor selectivity (PDE10A; vs C1): relatively pure

O=C(O)C(Cl)Cl [DCA, Dichloroacetate]
increase of photon flux (MP2 pODD flank tumors; intraperitoneal 75 mg/kg): 1.8 ×

COc1ccc(OCc2nccc3cc(OC)c(OC)cc23)cc1OC [SMV37]
radiation response (murine tumors): increase radiation response of murine tumors
tumor hypoxia (murine tumors): reduce tumor hypoxia
mitochondrial activity (ETC complex 1 (C1)): retain mitochondrial activity
C1 inhibitor selectivity (ETC complex 1 (C1)): relatively pure

O=[N+]([O-])c1ccc(O)c([N+](=O)[O-])c1 [2,4-DNP, 2,4-dinitrophenol]
increase of photon flux compared to baseline (MP2 pODD flank tumors; single intraperitoneal dose of 20 mg/kg): 1.6 ×
